According to ChEMBL document CHEMBL1201862, “PubChem BioAssay data set” (2004):
Calls of active or inactive are those of the source.

Experiments:
[1] = growth suppression of PTEN-null colon cells, dose response, cell-based, HCT116 PTEN knockout (AID 1047); format: functional;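 note: HCT116 colon tumor cells with PTEN knocked out; cells exposed to compound for 60 hours before readout; potency for loss of cell viability measured by luminescence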
[2] = growth suppression of beta-catenin-knockout colon cells, dose response, cell-based, HCT116, human colon tumor (AID 1045); format: functional;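 note: HCT116 colon tumor cells with beta catenin knocked out; cells exposed to compound for 60 hours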
[3] = molecular target: T1, G-protein coupled receptor 55 (Homo sapiens, UniProt Q9Y2T6); assay: GPR55 antagonists blocking LPI-driven arrestin recruitment, primary screen, imaging, U2OS, beta-arrestin-GFP, LPI agonist (AID 2013); format: functional;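 note: antagonist potency measured as reduced agonist-driven arrestin aggregation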
[4] = Luminescence Cell-Based Dose Response HTS to Identify Inhibitors of 5'UTR Stem-Loop Driven Prion Protein mRNA Translation in H4 Neuroglioblastoma Cells. [Related pubchem assays: 1827 (Project Summary), 1813 (Primary HTS)]; format: functional
[5] = inhibitors of firefly luciferase expression or activity, dose response, H4 neuroglioma cells, luminescence (AID 1990); format: functional, cell-based
[6] = inhibitors of SNCA 5'UTR-driven reporter translation, confirmation, H4 neuroglioma cells, luminescence (AID 1988); format: functional, cell-based
[7] = molecular target: Phosphoethanolamine/phosphocholine phosphatase (Homo sapiens, UniProt Q8TCT1); assay: SAR assay for compounds that inhibit PHOSPHO1. [Related pubchem assays (depositor defined):AID1545, AID1565, AID1574]
[8] = molecular target: T2, Hexokinase (Trypanosoma brucei, UniProt Q38C41); assay: Confirmation assay for inhibitors of Trypanosoma brucei hexokinase 1-Analogue-first series. [Related pubchem assays (depositor defined):AID1430, AID1632, AID2516, AID2560, AID2579, AID2600, AID449725, AID492951]; format: functional
T2 sequence (Q38C41 whole entry): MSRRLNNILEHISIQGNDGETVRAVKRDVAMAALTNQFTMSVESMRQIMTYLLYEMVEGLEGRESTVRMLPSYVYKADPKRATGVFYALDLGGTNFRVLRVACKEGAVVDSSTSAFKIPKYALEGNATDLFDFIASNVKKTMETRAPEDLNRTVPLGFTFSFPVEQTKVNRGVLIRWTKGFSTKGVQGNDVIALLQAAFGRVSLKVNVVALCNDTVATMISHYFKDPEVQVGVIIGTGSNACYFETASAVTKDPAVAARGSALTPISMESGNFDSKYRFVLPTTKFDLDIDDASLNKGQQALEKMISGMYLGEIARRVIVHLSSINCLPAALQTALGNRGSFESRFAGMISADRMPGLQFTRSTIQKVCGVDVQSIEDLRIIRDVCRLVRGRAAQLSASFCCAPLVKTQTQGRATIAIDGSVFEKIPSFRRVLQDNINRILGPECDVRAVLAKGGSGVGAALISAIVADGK

[9] = molecular target: DNA dC->dU-editing enzyme APOBEC-3G (Homo sapiens, UniProt Q9HC16); assay: Dose Response confirmation of small molecule APOBEC3G DNA Deaminase Inhibitors via a fluorescence-based single-stranded DNA deaminase assay. [Related pubchem assays (depositor defined):AID493012, AID493028]; format: functional
[10] = molecular target: T3, Rac GTPase-activating protein 1 (Homo sapiens, UniProt Q9H0H5); assay: MgcRacGAP GTPase-activating activity inhibitors, confirmation, biochemical, ADP Hunter fluorescence, primary and confirmatory (AID 624330); format: functional
T3 sequence (Q9H0H5 whole entry): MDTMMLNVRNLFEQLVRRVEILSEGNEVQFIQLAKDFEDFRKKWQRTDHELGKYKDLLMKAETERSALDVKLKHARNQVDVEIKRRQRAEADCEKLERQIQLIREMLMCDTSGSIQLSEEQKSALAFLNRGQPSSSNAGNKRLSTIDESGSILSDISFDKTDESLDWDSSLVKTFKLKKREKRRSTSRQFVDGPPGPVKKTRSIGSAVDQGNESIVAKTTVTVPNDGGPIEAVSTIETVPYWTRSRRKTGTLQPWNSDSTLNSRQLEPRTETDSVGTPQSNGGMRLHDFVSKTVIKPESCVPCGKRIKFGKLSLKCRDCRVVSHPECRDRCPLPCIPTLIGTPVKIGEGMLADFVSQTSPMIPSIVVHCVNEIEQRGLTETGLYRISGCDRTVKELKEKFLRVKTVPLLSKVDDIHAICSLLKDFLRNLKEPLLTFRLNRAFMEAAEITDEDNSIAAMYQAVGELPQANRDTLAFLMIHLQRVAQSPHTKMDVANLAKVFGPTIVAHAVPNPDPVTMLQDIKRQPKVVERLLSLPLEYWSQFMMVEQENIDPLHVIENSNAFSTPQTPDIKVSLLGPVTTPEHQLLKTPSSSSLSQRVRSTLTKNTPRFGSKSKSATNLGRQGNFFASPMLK

[11] = molecular target: Mitochondrial peptide methionine sulfoxide reductase (Bos taurus, UniProt P54149); assay: Absorbance-based biochemical high throughput dose response assay for activators of Methionine sulfoxide reductase A (MsrA).; format: functional
[12] = Fluorescence-based cell-based high throughput dose response assay for inhibitors of the interaction of nucleotide-binding oligomerization domain containing 2 (NOD2) and the receptor-interacting serine-threonine kinase 2 (RIPK2).; format: functional; details: Homo sapiens
[13] = molecular target: T4, Beta Lactamase (Pseudomonas aeruginosa, UniProt Q932Y6); assay: beta-lactamase reporter inhibitor potency, dose response, artefact control for TLR9-MyD88 binding inhibitor project, BLA reporter cells, FRET fluorescence (AID 588341); format: cell-based;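 note: cell based assay in CHO-K1 cells stably expressing beta-lactamase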
[14] = molecular target: T5, Phosphomannomutase 2 (Homo sapiens, UniProt O15305); assay: Counter screen SAR assay for PMM2 inhibitors via a fluorescence intensity assay. [Related pubchem assays (depositor defined):AID1545, AID1574]
T5 sequence (O15305 whole entry): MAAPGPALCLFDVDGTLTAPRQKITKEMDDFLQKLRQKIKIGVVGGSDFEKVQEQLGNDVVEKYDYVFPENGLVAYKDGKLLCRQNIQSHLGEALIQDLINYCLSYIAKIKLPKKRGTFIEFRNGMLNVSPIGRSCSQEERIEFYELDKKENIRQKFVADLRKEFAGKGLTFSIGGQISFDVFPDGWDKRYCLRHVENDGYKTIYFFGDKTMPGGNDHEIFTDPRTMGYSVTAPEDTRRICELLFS

[15] = molecular target: DNA dC->dU-editing enzyme APOBEC-3A (Homo sapiens, UniProt P31941); assay: APOBEC3A DNA deaminase inhibitors, dose response, biochemical (AID 504722); format: functional
[16] = HeLa cell cytotoxicity, dose response, cytotoxicity control for MgcRacGAP inhibitor project (AID 624300); format: functional
[17] = test system: CHO; assay: cytotoxicity in TLR9-MyD88 CHO cells, dose response, cytotoxicity control for TLR9-MyD88 binding inhibitor project, cell-based, luminescence (AID 588339); format: functional, hamster; details: Cricetulus griseus;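 note: CHO cells stably coexpressing TLR9 and MyD88 fusions from primary screen; compound exposure lasted 48 hours before viability readout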
[18] = molecular target: T4, Beta Lactamase; assay: beta-lactamase reporter inhibitor potency, dose response, artefact control for NOD2-RIPK2 interaction inhibitor project, BLA reporter cells, FRET fluorescence (AID 651552); format: functional, cell-based
[19] = molecular target: T6, Alkaline phosphatase, tissue-nonspecific isozyme (Homo sapiens, UniProt P05186); assay: human TNAP enzyme inhibitors, SAR follow-up, biochemical, luminescent, dose response (AID 1056)
T6 sequence (P05186 whole entry): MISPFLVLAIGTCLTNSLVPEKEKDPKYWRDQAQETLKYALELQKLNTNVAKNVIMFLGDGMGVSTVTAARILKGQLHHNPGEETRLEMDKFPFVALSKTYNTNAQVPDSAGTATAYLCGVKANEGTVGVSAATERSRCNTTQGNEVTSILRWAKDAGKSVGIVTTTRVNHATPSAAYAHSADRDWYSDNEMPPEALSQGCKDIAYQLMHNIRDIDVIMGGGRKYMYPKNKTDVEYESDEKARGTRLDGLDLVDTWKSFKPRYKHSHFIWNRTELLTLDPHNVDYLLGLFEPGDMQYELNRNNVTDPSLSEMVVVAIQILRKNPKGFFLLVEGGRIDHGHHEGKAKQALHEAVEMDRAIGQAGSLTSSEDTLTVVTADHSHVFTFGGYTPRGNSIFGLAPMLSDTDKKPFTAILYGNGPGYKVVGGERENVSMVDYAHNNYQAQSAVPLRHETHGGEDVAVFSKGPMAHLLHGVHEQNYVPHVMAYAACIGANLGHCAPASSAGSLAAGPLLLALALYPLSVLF

[20] = test system: Saccharomyces cerevisiae; assay: NALP1 inhibitor project selectivity study, Caspase-1/ASC signal blockade IC50 in S. cerevisiae (AID 488863); format: functional, organism-based
[21] = molecular target: NACHT, LRR and PYD domains-containing protein 1 (Homo sapiens, UniProt Q9C000); assay: NALP1 inhibitors in yeast, dose response, luminescent (AID 488860); format: functional
[22] = molecular target: T1, G-protein coupled receptor 55; assay: GPR55 agonists via beta-arrestin recruitment, primary screen, imaging, U2OS cells, beta-arrestin-GFP redistribution (AID 1961); format: functional
[23] = test system: Vero; assay: West Nile virus CPE inhibition, SAR follow-up, cell-based, synthesized analogs (AID 2238); format: functional; details: Chlorocebus sabaeus
[24] = test system: Vero; assay: West Nile virus cytopathic effect inhibition, cell-based (AID 2419); format: functional; details: Chlorocebus sabaeus
[25] = test system: Vero; assay: Vero E6 cell cytotoxicity, SAR follow-up, cytotoxicity control for West Nile virus antiviral project, synthesized analogs (AID 2244); format: functional; details: Chlorocebus sabaeus
[26] = test system: Vero; assay: West Nile virus antiviral activity, cell-based, CPE readout (AID 1621); format: functional; details: Chlorocebus sabaeus
[27] = test system: Vero; assay: cytotoxicity of synthesized analogs in Vero 76, SAR follow-up, cytotoxicity control for West Nile virus antiviral project, Vero 76 cells (AID 2414); format: functional; details: Chlorocebus sabaeus
[28] = test system: Vero; assay: cytotoxicity of synthesized analogs in Vero cells, SAR follow-up, cytotoxicity control for West Nile virus antiviral project, cell-based, set II (AID 2402); format: functional; details: Chlorocebus sabaeus
[29] = molecular target: T7, Coagulation factor XII (Homo sapiens, UniProt P00748); assay: FXIIa inhibitor potency, concentration-response, biochemical (AID 716); format: functional
T7 sequence (P00748 whole entry): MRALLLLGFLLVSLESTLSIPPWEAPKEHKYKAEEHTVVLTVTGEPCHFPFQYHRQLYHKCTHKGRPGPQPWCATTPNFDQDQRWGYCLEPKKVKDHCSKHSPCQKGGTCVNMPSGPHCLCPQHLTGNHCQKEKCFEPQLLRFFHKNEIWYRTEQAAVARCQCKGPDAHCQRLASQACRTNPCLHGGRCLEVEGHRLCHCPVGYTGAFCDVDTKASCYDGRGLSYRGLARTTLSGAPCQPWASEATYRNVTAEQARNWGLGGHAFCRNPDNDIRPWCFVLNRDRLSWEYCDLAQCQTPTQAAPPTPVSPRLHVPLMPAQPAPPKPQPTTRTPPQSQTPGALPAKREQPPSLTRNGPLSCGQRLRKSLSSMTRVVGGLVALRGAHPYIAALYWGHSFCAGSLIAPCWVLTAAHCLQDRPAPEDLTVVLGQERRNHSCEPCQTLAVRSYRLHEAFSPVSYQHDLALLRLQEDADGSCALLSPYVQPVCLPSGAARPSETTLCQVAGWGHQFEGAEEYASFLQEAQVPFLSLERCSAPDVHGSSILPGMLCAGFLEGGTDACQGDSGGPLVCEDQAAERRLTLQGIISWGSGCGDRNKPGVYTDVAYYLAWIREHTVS

[30] = test system: H9c2; assay: cells; format: functional, cell-based; details: Rattus norvegicus, H9c2, Myocardium;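 note: confirmatory concentration-response retest of ultra-high-throughput screening hits for modulation of myocardial damage; cell death induced by hydrogen peroxide oxidative stress; compound pretreatment for 60 min then peroxide exposure for 2 h; potency is for protecting the cells against peroxide damage rather than for killing them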
[31] = molecular target: E3 ubiquitin-protein ligase Mdm2/Protein Mdm4 (Homo sapiens, UniProt O15151+Q00987); assay: Mdm2-MdmX interaction inhibitors, dose response, luminescence detection (AID 504593); format: functional
[32] = molecular target: Alkaline phosphatase, placental type (Homo sapiens, UniProt P05187); assay: PLAP enzyme inhibitors, confirmation, biochemical, luminescence (AID 1512); format: functional
Sequence of Alkaline phosphatase, placental type (P05187 whole entry): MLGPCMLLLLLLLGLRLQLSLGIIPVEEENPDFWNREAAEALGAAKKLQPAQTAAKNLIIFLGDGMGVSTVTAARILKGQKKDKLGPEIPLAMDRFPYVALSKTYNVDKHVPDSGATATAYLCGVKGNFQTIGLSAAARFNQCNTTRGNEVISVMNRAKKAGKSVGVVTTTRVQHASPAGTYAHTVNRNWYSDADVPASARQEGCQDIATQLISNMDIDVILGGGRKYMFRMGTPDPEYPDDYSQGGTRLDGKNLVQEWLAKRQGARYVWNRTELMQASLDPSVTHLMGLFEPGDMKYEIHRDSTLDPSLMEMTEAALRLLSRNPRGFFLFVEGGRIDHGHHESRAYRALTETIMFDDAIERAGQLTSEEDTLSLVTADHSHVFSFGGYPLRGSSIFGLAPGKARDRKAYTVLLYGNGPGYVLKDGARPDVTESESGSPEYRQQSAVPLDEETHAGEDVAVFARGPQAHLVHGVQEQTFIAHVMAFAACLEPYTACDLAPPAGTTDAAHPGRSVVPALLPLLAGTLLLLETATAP

T1 sequence (Q9Y2T6 whole entry): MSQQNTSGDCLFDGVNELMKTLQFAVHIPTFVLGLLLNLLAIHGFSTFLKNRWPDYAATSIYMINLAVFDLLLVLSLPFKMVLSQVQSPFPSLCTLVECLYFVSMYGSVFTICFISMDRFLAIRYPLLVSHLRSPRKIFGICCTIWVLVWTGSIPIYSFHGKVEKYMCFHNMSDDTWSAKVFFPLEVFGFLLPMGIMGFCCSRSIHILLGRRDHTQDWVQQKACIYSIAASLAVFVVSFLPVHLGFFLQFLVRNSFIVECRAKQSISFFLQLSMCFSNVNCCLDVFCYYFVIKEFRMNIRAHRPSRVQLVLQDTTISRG
T4 sequence (Q932Y6 whole entry): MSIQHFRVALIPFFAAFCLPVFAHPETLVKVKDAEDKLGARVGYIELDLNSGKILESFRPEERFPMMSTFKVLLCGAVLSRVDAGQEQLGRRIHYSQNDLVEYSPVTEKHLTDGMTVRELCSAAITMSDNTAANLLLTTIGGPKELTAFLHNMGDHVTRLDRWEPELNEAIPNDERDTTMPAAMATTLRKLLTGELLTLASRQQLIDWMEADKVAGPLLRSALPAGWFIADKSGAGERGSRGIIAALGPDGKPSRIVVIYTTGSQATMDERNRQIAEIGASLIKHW
Sequence of DNA dC->dU-editing enzyme APOBEC-3A (P31941 whole entry): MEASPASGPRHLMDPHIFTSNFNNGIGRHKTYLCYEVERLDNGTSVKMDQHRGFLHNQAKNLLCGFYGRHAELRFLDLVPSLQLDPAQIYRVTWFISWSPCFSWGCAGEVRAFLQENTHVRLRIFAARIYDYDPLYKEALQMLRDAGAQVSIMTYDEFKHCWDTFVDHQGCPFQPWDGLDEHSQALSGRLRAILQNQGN
Sequence of DNA dC->dU-editing enzyme APOBEC-3G (Q9HC16 whole entry): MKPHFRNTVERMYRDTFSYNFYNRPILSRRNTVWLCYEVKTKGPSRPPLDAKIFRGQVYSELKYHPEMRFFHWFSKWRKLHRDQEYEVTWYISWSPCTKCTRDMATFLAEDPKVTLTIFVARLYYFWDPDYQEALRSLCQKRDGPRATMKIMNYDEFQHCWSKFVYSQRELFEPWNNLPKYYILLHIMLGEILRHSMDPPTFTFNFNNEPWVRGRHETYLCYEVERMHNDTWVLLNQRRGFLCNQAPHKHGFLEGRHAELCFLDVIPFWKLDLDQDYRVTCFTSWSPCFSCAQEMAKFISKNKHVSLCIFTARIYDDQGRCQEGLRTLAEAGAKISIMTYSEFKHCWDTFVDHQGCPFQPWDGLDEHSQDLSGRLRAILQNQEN
Sequence of NACHT, LRR and PYD domains-containing protein 1 (Q9C000 1-1212 limits assumed): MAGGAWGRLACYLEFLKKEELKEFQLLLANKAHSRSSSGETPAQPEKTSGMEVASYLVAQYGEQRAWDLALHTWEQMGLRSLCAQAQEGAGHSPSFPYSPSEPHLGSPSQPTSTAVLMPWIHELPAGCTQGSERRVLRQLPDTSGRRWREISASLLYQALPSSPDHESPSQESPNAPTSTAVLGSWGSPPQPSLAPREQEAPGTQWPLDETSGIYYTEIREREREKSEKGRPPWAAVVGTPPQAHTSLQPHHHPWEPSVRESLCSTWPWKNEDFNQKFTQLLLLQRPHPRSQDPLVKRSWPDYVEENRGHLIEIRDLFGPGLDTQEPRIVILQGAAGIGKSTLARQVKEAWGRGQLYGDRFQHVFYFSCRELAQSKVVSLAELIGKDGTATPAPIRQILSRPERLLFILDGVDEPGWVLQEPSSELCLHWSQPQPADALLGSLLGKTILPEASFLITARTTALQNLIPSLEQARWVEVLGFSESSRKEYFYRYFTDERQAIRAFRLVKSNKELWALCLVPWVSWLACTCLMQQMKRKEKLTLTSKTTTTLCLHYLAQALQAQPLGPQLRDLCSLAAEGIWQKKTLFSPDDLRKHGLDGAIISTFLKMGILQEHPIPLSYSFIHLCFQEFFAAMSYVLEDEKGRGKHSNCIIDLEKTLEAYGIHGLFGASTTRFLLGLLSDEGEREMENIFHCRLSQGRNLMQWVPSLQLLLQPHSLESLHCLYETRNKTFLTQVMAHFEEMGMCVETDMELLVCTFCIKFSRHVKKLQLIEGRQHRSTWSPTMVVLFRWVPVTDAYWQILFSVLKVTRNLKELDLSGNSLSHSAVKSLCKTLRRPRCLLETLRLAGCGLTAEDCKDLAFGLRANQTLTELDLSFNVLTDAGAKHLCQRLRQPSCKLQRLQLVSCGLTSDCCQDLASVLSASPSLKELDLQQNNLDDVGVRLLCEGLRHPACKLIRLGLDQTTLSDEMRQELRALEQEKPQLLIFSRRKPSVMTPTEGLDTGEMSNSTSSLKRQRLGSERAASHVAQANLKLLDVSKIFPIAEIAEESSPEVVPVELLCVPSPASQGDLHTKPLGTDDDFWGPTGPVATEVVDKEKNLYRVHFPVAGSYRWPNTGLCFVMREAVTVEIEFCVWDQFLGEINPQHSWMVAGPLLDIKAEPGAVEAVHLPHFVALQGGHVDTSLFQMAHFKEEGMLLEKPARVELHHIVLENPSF
Sequence of NACHT, LRR and PYD domains-containing protein 1 (Q9C000 1213-1473 limits assumed): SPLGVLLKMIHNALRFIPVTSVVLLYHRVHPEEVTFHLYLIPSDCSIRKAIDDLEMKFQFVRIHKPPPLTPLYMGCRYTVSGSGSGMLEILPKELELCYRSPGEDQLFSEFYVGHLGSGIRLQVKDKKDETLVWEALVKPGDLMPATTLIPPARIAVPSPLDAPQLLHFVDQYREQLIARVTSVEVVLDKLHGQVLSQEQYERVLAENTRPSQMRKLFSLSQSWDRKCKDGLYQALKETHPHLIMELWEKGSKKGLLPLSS
Sequence of E3 ubiquitin-protein ligase Mdm2/Protein Mdm4 (Q00987 whole entry): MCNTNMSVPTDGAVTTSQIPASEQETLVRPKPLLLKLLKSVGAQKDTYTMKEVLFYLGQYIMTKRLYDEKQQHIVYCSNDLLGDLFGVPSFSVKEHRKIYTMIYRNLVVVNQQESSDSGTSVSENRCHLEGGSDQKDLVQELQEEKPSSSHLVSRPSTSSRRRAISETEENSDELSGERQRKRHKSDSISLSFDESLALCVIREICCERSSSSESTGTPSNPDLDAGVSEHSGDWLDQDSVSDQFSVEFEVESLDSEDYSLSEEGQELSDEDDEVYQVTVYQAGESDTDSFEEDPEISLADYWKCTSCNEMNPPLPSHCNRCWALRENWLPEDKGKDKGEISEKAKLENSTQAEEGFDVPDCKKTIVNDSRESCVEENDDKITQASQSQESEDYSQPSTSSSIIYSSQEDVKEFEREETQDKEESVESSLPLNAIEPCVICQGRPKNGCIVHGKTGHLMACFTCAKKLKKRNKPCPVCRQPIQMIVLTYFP
Sequence of E3 ubiquitin-protein ligase Mdm2/Protein Mdm4 (O15151 whole entry): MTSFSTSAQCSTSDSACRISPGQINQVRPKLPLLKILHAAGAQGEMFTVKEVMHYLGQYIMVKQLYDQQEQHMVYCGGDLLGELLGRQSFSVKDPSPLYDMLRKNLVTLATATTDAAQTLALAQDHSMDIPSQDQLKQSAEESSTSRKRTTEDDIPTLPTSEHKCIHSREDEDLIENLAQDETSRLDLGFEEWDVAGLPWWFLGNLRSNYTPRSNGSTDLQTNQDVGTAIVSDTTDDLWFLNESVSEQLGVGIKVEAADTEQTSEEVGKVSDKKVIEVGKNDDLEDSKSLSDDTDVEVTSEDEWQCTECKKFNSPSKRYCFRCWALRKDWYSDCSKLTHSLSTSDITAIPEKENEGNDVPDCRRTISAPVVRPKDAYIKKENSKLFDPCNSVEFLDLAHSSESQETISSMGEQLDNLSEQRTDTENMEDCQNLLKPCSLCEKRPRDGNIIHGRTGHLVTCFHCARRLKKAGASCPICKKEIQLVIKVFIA
Sequence of Mitochondrial peptide methionine sulfoxide reductase (P54149 whole entry, the tested form may be a part): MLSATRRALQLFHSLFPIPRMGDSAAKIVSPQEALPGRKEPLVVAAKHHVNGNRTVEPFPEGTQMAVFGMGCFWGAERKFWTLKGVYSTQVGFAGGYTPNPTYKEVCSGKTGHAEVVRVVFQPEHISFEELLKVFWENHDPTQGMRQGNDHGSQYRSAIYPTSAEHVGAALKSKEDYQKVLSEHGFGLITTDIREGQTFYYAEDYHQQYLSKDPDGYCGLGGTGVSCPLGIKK
Sequence of Phosphoethanolamine/phosphocholine phosphatase (Q8TCT1 whole entry): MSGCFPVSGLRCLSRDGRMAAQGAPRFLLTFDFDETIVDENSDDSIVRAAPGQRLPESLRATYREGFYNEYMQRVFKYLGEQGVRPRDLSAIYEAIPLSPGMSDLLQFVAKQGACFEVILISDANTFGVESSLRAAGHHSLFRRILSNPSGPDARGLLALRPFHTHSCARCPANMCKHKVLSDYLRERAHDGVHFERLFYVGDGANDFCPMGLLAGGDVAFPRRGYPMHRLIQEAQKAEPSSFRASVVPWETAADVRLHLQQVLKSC

CCCCNS(=O)(=O)c1ccc(NC(=O)C(Sc2ccccc2)c2ccccc2)cc1 (stereo not drawn)
EC50 [1]: 14 µM (active) | EC50 [2]: 12.2 µM (active) | IC50 [3]: 1.12 µM (active) | EC50 [4]: > 120 µM (not active) | EC50 [5]: > 120 µM (not active) | EC50 [6]: 13.9 µM (active)

O=c1c2cc(F)ccc2sn1-c1ccccc1
IC50 [7]: 0.792 µM (active) | IC50 [8]: 1.03 µM (active) | IC50 [9]: 8.82 µM (active) | IC50 [10]: 35.5 µM (active) | EC50 [11]: > 104 µM (inactive) | IC50 [12]: 4.59 µM (active) | IC50 [13]: 23 µM (inactive) | IC50 [14]: 88.3 µM (active) | IC50 [15]: > 100 µM (inactive) | CC50 [16]: 100 µM (active) | IC50 [17]: 5.8 µM (active) | IC50 [18]: 23.7 µM (inactive) | IC50 [19]: > 100 µM (inactive)

COC(=O)c1sccc1NC(=O)c1csc(C)c1
IC50 [20]: 60.4 µM (active) | IC50 [21]: 15.9 µM (active)

O=C(O)c1cccc(CSc2nnc(-c3ccc(Cl)cc3Cl)[nH]2)c1
EC50 [22]: 6.41 µM (active)

O=C(CSc1nc2ccccc2c(=O)n1-c1ccc(F)cc1F)Nc1ccc2c(c1)CCC2
IC50 [23]: 45 µM (active) | IC50 [24]: 173 µM (active) | CC50 [25]: > 80 µM (active) | IC50 [26]: 11.8 µM (active) | CC50 [27]: > 16.7 µM (active) | CC50 [28]: > 200 µM (active)

CC(C)CC(c1nnnn1Cc1ccco1)N1CCN(C2CCCC2)CC1 (stereo not drawn)
IC50 [29]: > 50 µM (inactive)

CC(=O)c1ccc(-c2ccc(C(=O)Nc3nc(-c4ccccn4)cs3)o2)cc1
IC50 [30]: > 79 µM (inactive) | IC50 [31]: 3.97 µM (active)

O=C(CSc1nnc(-c2ccco2)[nH]1)c1ccc(O)c(O)c1
IC50 [32]: 12.2 µM (active) | IC50 [19]: 21.7 µM (active)
